Source: patent US8575091B1, “Amylin analogues and pharmaceutical compositions thereof” (Novo Nordisk A/S, priority 2012, dated 2013)
Numbered stars: 1 amine (or outer) side, 2 acyl side, 3 side chain; on linkers, the order of the positions; unused ones are H or OH. Bridge positions count the residues as written; N and C are the ends. Side chains are listed from the residue outwards. Peptide text beside a SMILES is read from it. * marks the point of attachment. C20 diacid = O=C(O)CCCCCCCCCCCCCCCCCCC(=O)*; γGlu = O=C(O)[C@H](CCC(=O)[*:2])N[*:1]

Tests used:
[1] = target: T1, human calcitonin receptor (Homo sapiens, UniProt P30988); assay: Assay (II)a functional assay, human calcitonin receptor (CRE luciferase, BHK cells);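 further: luminescence from a CRE-driven luciferase reporter, read by single photon counting after cells were exposed to test samples for 3 h at 37 °C under 5% CO2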; type: cell-based; details: read-out: hCTR funct. EC50
T1 construct: expressed in transfected cells
T1 sequence (P30988 25-474): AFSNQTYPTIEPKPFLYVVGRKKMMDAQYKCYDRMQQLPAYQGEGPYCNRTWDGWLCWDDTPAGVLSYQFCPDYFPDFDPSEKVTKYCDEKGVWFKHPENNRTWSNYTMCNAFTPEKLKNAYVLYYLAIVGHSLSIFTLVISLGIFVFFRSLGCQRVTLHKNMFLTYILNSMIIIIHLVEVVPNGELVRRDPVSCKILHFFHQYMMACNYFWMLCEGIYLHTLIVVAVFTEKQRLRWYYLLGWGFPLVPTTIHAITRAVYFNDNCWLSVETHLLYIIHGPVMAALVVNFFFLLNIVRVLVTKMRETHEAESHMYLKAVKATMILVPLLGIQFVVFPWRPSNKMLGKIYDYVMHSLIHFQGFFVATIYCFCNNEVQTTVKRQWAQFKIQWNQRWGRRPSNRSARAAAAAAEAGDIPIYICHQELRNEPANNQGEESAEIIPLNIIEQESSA

[2] = target: T1, human calcitonin receptor; assay: Assay (VII) binding to the human calcitonin receptor (SPA, 125I-Calcitonin); details: read-out: hCTR bind IC50;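 further: cell membranes coupled to SPA beads, competitive displacement read by scintillation counting, IC50 derived from a one-site competition fit as a measure of receptor affinity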
Wistar rats = assay: Assay (XII) single subcutaneous administration, plasma calcium in rats; type: in vivo, rat; details: for Plasma calcium red (%) 0-12 h: single s.c., maximal reduction 0-12 h, compared to vehicle; for suppression of plasma calcium level relative to vehicle: single subcutaneous, over 24 hours
Method in brief: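 Male Wistar rats (~250 g), groups of five, received a single subcutaneous dose at time 0. Blood drawn at −15 min, 1, 2, 4, 7, 12 and 24 h; total calcium measured in heparin plasma, reported as mean±SEM.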

human amylin receptor = target: T2, human amylin receptor (Homo sapiens, UniProt O60896+P30988); assay: Assay (V) binding to the human amylin receptor (SPA, 125I-rat amylin); details: human amylin receptor membranes, SPA; read-out: hAmylin-R bind IC50
T2 construct: expressed in transfected cells
T2 sequence (P30988 25-474): T1 sequence (P30988 25-474)
T2 sequence (O60896 24-148 partner): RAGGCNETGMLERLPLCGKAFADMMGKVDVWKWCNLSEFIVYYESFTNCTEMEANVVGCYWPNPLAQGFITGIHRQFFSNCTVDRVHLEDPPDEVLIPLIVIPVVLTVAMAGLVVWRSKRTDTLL
Method in brief: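 SPA competition binding on membranes from Amylin 3(a)/CRE-luc cells, 35 ng/μL membranes with 0.05 mg/well beads. Buffer 50 mM Hepes pH 7.4, 1 mM CaCl2, 5 mM MgCl2, 0.1% OA, 0.02% Tween20. IC50 from one-site competition fit as affinity measure.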

Sprague-Dawley rats = assay: Assay (XI) single subcutaneous administration, food intake monitored for 48 hours in rats; type: in vivo, rat; details: single subcutaneous 30 nmol/kg
Experimental: Assay (XI)—Effect from Single Subcutaneous Administration of Analogue on […] in Rats
Male Sprague-Dawley rats (Taconic Europe, ˜250 g at test date) were acclimatized to reversed day light cycle (lights on from 10 PM to 10 AM) and single housing in online food intake monitoring system (Ellegaard MBRose, Denmark) prior to study start. Rats were divided in groups of five and subcutaneously dosed with test compound (30 nmol/kg) and food intake was monitored for 48 hours hereafter. Data are illustrated in graphs as mean±SEM.

[3] = target: T3, human amylin receptor (amylin 3(a) receptor: human calcitonin receptor + RAMP-3) (Homo sapiens, UniProt O60896+P30988); assay: Assay (II)a functional assay, human amylin receptor (CRE luciferase, BHK cells); type: cell-based; details: for EC50: functional assay, human amylin receptor, read-out: hAmylin-R funct. EC50
T3 construct: expressed in transfected cells
T3 sequence (P30988 25-474): T1 sequence (P30988 25-474)
T3 sequence (O60896 24-148 partner): T2 sequence (O60896 24-148 partner)

[4] = Table 6, human functional selectivity (hCTR EC50 / hAmylin-R EC50)
[5] = Table 6a, human functional selectivity (hCTR EC50 / hAmylin-R EC50), at least 5
[6] = Table 6i, hCTR funct. EC50 / hAmylin-R funct. EC50
[7] = Table 6j, hCTR funct. EC50 / hAmylin-R funct. EC50
[8] = Table 6k, hCTR funct. EC50 / hAmylin-R funct. EC50

EC50 [1]	IC50 [2]	IC50 (human amylin receptor)	EC50 [3]	Ratio hCT/hAmylin funct. [3, 4]	Ratio hCT/hAmylin funct. [3, 5]	Ratio hCT/hAmylin funct. [3, 6]	Ratio hCT/hAmylin funct. [3, 7]	Ratio hCT/hAmylin funct. [3, 8]	SMILES	Plasma calcium red (%) 0-12 h (Wistar rats; 30 nmol/kg)	suppression of plasma calcium level relative to vehicle (Wistar rats; increasing doses (all doses tested))	food intake monitored over 48 hours versus vehicle (Sprague-Dawley rats)	Plasma calcium red (%) 0-12 h (Wistar rats; 3 nmol/kg)	suppression of plasma calcium level relative to vehicle (Wistar rats; 3 nmol/kg)	suppression of plasma calcium level relative to vehicle (Wistar rats; 30 nmol/kg)	suppression of plasma calcium level relative to vehicle (Wistar rats; 100 and 300 nmol/kg)
14.1 nM	56.9 nM	0.697 nM	0.34 nM						CC[C@H](C)[C@H](NC(=O)[C@H](C)NC(=O)CNC(=O)[C@H](Cc1ccccc1)NC(=O)[C@H](CC(N)=O)NC(=O)[C@@H]1CCCN1C(=O)[C@H](CO)NC(=O)[C@H](CO)NC(=O)[C@H](Cc1c[nH]cn1)NC(=O)[C@H](CCCNC(=N)N)NC(=O)[C@H](CC(C)C)NC(=O)[C@H](Cc1ccccc1)NC(=O)[C@H](CC(=O)O)NC(=O)[C@H](C)NC(=O)[C@H](CC(C)C)NC(=O)[C@H](CCCNC(=N)N)NC(=O)[C@H](CCC(N)=O)NC(=O)[C@@H](NC(=O)[C@H](C)NC(=O)[C@@H]1CSSC[C@H](NC(=O)[C@@H](N)CCCCNC(=O)CC[C@H](NC(=O)CC[C@H](NC(=O)CCCCCCCCCCCCCCCCCCC(=O)O)C(=O)O)C(=O)O)C(=O)N[C@@H](CC(N)=O)C(=O)N[C@@H]([C@@H](C)O)C(=O)N[C@@H](C)C(=O)N[C@@H]([C@@H](C)O)C(=O)N1)[C@@H](C)O)C(=O)N1CCC[C@H]1C(=O)N[C@@H](CO)C(=O)N[C@@H](CO)C(=O)N[C@H](C(=O)N[C@@H](CC(N)=O)C(=O)N[C@H](C(=O)NCC(=O)N[C@@H](CO)C(=O)N[C@@H](CCCNC(=N)N)C(=O)N[C@H](C(=O)N[C@@H](Cc1ccc(O)cc1)C(N)=O)[C@@H](C)O)C(C)C)[C@@H](C)O [Example 52, N-ε-1-{(S)-4-carboxy-4-[(S)-4-carboxy-4-(19-carboxynonadecanoylamino)butyrylamino]butyryl}-[Asp14,Arg17,Pro21,Pro27,Arg35]-human amylin]	12%	None of the doses trigger a notable suppression of the calcium level	reduces food intake in rats				
0.841 nM	1.86 nM	0.14 nM	0.161 nM	5.2	5.2	5.2	5.2	5.2	CC[C@H](C)[C@H](NC(=O)[C@H](C)NC(=O)CNC(=O)[C@H](Cc1ccccc1)NC(=O)[C@H](CC(N)=O)NC(=O)[C@@H]1CCCN1C(=O)[C@H](CO)NC(=O)[C@H](CO)NC(=O)[C@H](Cc1c[nH]cn1)NC(=O)[C@H](CCCNC(=N)N)NC(=O)[C@H](CC(C)C)NC(=O)[C@H](Cc1ccccc1)NC(=O)[C@H](CCC(=O)O)NC(=O)[C@H](C)NC(=O)[C@H](CC(C)C)NC(=O)[C@H](CCCNC(=N)N)NC(=O)[C@H](CCC(N)=O)NC(=O)[C@@H](NC(=O)[C@H](C)NC(=O)[C@@H]1CSSC[C@H](NC(=O)[C@@H](N)CCCCNC(=O)CC[C@H](NC(=O)CCCCCCCCCCCCCCCCCCC(=O)O)C(=O)O)C(=O)N[C@@H](CC(N)=O)C(=O)N[C@@H]([C@@H](C)O)C(=O)N[C@@H](C)C(=O)N[C@@H]([C@@H](C)O)C(=O)N1)[C@@H](C)O)C(=O)N1CCC[C@H]1C(=O)N[C@@H](CO)C(=O)N[C@@H](CO)C(=O)N[C@H](C(=O)N[C@@H](CC(N)=O)C(=O)N[C@H](C(=O)NCC(=O)N1CCC[C@H]1C(=O)N[C@@H](CCC(=O)O)C(=O)N[C@H](C(=O)N[C@@H](Cc1ccc(O)cc1)C(N)=O)[C@@H](C)O)C(C)C)[C@@H](C)O [Example 109] (H-K([γGlu-C20 diacid])CNTATCATQRLAEFLRHSSPNFGAIPSSTNVGPETY-NH2; disulfide 2-7)	27%		reduces food intake in rats	7%	does not trigger a notable suppression of the calcium level	minor suppression of the calcium level	more pronounced suppression of the calcium level
6.38 nM	6.3 nM	0.163 nM	0.376 nM	17.0	17.0	17.0	17.0	17.0	CC[C@H](C)[C@H](NC(=O)[C@H](C)NC(=O)CNC(=O)[C@H](Cc1ccccc1)NC(=O)[C@H](CC(N)=O)NC(=O)[C@@H]1CCCN1C(=O)[C@H](CO)NC(=O)[C@H](CO)NC(=O)[C@H](Cc1c[nH]cn1)NC(=O)[C@H](CCCNC(=N)N)NC(=O)[C@H](CC(C)C)NC(=O)[C@H](Cc1ccccc1)NC(=O)[C@H](CCC(=O)O)NC(=O)[C@H](C)NC(=O)[C@H](CC(C)C)NC(=O)[C@H](CCCNC(=N)N)NC(=O)[C@H](CCC(N)=O)NC(=O)[C@@H](NC(=O)[C@H](C)NC(=O)[C@@H]1CSSC[C@H](NC(=O)[C@@H](N)CCCCNC(=O)CC[C@H](NC(=O)CCCCCCCCCCCCCCCCCCC(=O)O)C(=O)O)C(=O)N[C@@H](CC(N)=O)C(=O)N[C@@H]([C@@H](C)O)C(=O)N[C@@H](C)C(=O)N[C@@H]([C@@H](C)O)C(=O)N1)[C@@H](C)O)C(=O)N1CCC[C@H]1C(=O)N[C@@H](CO)C(=O)N[C@@H](CO)C(=O)N[C@H](C(=O)N[C@@H](CC(N)=O)C(=O)N[C@H](C(=O)NCC(=O)N1CCC[C@H]1C(=O)N[C@@H](CCCNC(=N)N)C(=O)N[C@H](C(=O)N[C@@H](Cc1ccc(O)cc1)C(N)=O)[C@@H](C)O)C(C)C)[C@@H](C)O [Example 117] (H-K([γGlu-C20 diacid])CNTATCATQRLAEFLRHSSPNFGAIPSSTNVGPRTY-NH2; disulfide 2-7)	9%		reduces food intake in rats			None of the example compounds at 30 nmol/kg trigger a notable suppression of the calcium level	
